This note sets out measurements from patent US6207438A, “Method for preparing a product in particular for preventing and curing skin diseases, and resulting product” (priority 1998, dated 2001).

One experiment has as its target T1, 5α reductase (5αR) (Canis lupus familiaris, UniProt A0A8I3NQ64).
T1 construct: raw extract of dog prostate; from tissue; host or cells: dog prostate, raw extract
T1 sequence (A0A8I3NQ64 1-254): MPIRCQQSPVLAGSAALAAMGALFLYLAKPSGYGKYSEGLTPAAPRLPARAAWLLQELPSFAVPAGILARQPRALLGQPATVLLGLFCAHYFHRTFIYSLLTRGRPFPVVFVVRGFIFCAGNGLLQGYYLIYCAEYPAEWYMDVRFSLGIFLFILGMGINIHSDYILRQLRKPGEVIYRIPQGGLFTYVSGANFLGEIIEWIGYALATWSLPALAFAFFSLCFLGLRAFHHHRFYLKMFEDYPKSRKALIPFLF
Briefly: Inhibitor effect on 5α reductase of dog prostate extract (radio-chemical method). It is filed as biochemical. The conditions noted are these: 0.1 mM. The text has this:
It is known that enzymes of the type 5α reductase (5αR) transform testosterone into 17β-hydrosy-5α-androstan-3-one or […]. This reaction is crucial in the action of androgens. These enzymes are present in the keratinocytes of the epidermis, in the fibroblasts of the dermis, and in the sebaccous glands in particular.
Solutions of the product were created at five times the final concentration used in the reaction, in a citrate-phosphate buffer at 0.1 M and pH=5.6 (buffer used in the 5αR reaction). The 5αR reference inhibitor was finasteride (Chibro-Prosacar®, in 5 mg tablets), and tested at the concentration of 500 μg/ml after dilution in the citrate-phosphate buffer at 0.1 M.
The enzymatic extract used was a raw extract of dog prostate prepared in a tris buffer of 0.1 M/sucrose 20%, pH=7.5. The sample was calibrated in such a way as to transform approximately 0.1 pmole of testosterone with 50 μl of extract (being an arbitrary unit of the enzyme).
The mixtures were incubated for 4 hours at 37° C., then the testosterone and the derivatives formed were extracted by 500 μl of dichloromethane. The fraction of dichloromethane was drawn off, dried under a nitrogen flow, and chromatographed on silica in a dichloromethane/ethyl acetate/methanol system (proportions 85:15:3). The plates obtained were autoradiographed on Kodak MP® films.
The evaluation of the quantity of testosterone transformed was carried out after sectioning the products formed and counting them in liquid scintillation.

The test system of a further experiment is Staphylococcus aureus. As to the kind of experiment: microbe, parasite or virus in culture. It is filed as cell-based. The settings on record: 48 h, read-out: Factor of increase of the quantity of S. aureus. How it is done: (§1) Second In Vitro Test Establishing an Effect on Pathogenic and Non-pathogenic Flora
(§2) The effects of an oligosaccharide of a degree of polymerisation close to 10 according to the said first method, and of a chelate of this oligosaccharide+Zn, were evaluated on the non-pathogenic strain Micrococcus kristinae, the pathogenic strain Staphylococcus aureus, and the pathogenic strain Propionibacterium acnes. This latter strain is particularly involved in the irritations occurring in the course of cutaneous acne infections.
(§3) The bacteria are cultured in a saline medium (5.6 g/l of NaCl 2.812 g/l of KH2 PO4), containing pancreatic peptone (5.625 g/l) and extracts of heart/brain (9.843 g/l). The strains M. kristinae and S. aureus are cultured in an aerobic medium, and the strain P. acnes is cultured in an anaerobic medium, either in the presence of 5 g/l of glucose (traditional carbonaceous source) or in the presence of a product according to the invention (oligosaccharide of degree of polymerisation close to 10 alone, or this oligosaccharide forming a chelate with zinc), or in the presence of the medium alone (control cultures). The quantity of bacteria being cultured is evaluated after 48 hours of culturing by turbidimetry at 750 nm.

The test system of another experiment is Propionibacterium acnes. As to the kind of experiment: microbe, parasite or virus in culture. It is filed as cell-based. The settings on record: Cutibacterium acnes, 48 h, read-out: Factor of increase of the quantity of P. acnes. As to the method: as §1, §2, §3
For the next experiment, the system named is Micrococcus kristinae. As to the kind of experiment: microbe, parasite or virus in culture. The class given is cell-based. The settings on record: Rothia kristinae, 48 h, read-out: Factor of increase of the quantity of M. kristinae. How it is done:
as §1, §2, §3

The structures appear in SMILES notation. “And” between values parts separate entries of the source, which are not always exact repeats. Identical values can stand only once.

As a reminder, the inhibition is the percentage by which the read-out fell short of the control. As for `CC(C)(C)NC(=O)[C@H]1CC[C@H]2[C@@H]3CC[C@H]4NC(=O)C=C[C@]4(C)[C@H]3CC[C@]12C` [finasteride], at 5α reductase (5αR), the “Mean (cpm total)” value is given as 1080 cpm, the “Mean e - T” value was found to be 647 cpm and 100 µM produced 85% inhibition. Further, on 5α reductase (5αR) (listed as F), the “cpm ASD” value is 880 cpm and 748 cpm and 647 cpm; the “cpm DHT” value is 343 cpm and 262 cpm and 359 cpm; the cpm total is 1223 cpm and 1010 cpm and 1006 cpm. In addition, the activity at 100 µM at 5α reductase (5αR) (pH 5.6, enzyme control = 100) turned out to be 15%.

For `O=C[C@H](O)[C@@H](O)[C@H](O)[C@H](O)CO` [glucose], the fold induction at 5000 µg/mL amounted to 1.6 in the experiment with Staphylococcus aureus, 5.2 in the experiment on Propionibacterium acnes and 2.2 with Micrococcus kristinae.
